Test results reported in publication PMC8162404, “Proteomimetic surface fragments distinguish targets by function” (Chemical Science, 2020).

Legend:
CaM [1] = biological target: T1, CaM (Bos taurus, UniProt P62157); test: Competition pull-down with native ligand TRPV1-Ct15; assay type: binding, bovine; conditions: H14 library; competitor peptide 200 µM; read-out: Surface mapping KD (apparent), competition
T1 construct: made in house; host or cells: E. coli BL21 (DE3)

Gal-1 [2] = biological target: T2, Gal-1 (Homo sapiens, UniProt P09382); test: Competition pull-down with lactose; assay type: binding; conditions: H14 library; lactose 10 mM; read-out: Surface mapping KD (apparent), competition
T2 construct: made in house; host or cells: E. coli BL21(DE3)
T2 sequence (P09382 whole entry): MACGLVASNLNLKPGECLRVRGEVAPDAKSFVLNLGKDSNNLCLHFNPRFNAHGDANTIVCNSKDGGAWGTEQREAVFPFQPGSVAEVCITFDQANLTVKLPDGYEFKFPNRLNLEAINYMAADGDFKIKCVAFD
Method in brief: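 His6-tagged proteins immobilized on Co-NTA resin at 64 µM final with 64-member LSM foldamer sublibraries (1 M each, as printed) in pH 7.4 HEPES/NaCl buffers (Ca2+/TCEP per target), 30 min RT; competitor peptides 200 µM final, lactose 10 mM for Gal-1. Bound fractions from LC-MS loss vs protein-free resin; KD assuming 1:1 binding.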

RecQ-WH [3] = biological target: T3, RecQ-WH (Escherichia coli, UniProt P15043); test: Pull-down assay with immobilized protein and LSM libraries; design: species or system E. coli; conditions: H14 library; 1:1 binding assumed; read-out: Surface mapping KD (apparent)
T3 construct: coding for residues 408– 523 of E. coli RecQ; made in house; host or cells: E. coli BL21(DE3)
T3 sequence (P15043 408-523): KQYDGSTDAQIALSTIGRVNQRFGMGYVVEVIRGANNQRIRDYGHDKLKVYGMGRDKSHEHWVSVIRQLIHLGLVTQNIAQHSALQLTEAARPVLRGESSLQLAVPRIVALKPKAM
Method in brief: (§1)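 Buffers were HEPES pH 7.4 with 150 mM NaCl, plus 1 mM TCEP and 1 mM CaCl2 (50 mM HEPES) for S100A4 and S100B, 1 mM TCEP for Gal-1, and no additive for RecQ-WH. Immobilized protein at 64 µM was equilibrated 30 min with the LSM sublibrary, and unbound probes were measured by LC-MS.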

S100B [4] = biological target: T4, S100B (Homo sapiens, UniProt P04271); test: Competition pull-down with native ligand RSK1 (689–735); assay type: binding; conditions: H14 library; competitor peptide 200 µM; read-out: Surface mapping KD (apparent), competition
T4 construct: made in house; host or cells: Escherichia coli BL21(DE3)
T4 sequence (P04271 1-92): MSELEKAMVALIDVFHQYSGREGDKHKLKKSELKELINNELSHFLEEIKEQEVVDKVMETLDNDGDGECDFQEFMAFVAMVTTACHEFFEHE

RecQ-WH [5] = biological target: T3, RecQ-WH; test: Competition pull-down with native ligand SSB-Ct8; assay type: binding, E. coli; conditions: H14 library; competitor peptide 200 µM; read-out: Surface mapping KD (apparent), competition
S100A4 [6] = biological target: T5, S100A4 (Homo sapiens, UniProt P26447); test: Pull-down assay with immobilized protein and LSM libraries; assay type: binding; conditions: for Kd: H14 library, 1:1 binding assumed, read-out: Surface mapping KD (apparent); for Affinity class of probe (high, medium, low) in pull-down: H14 probes selected for validation
T5 construct: made in house; host or cells: Escherichia coli BL21(DE3)
T5 sequence (P26447 whole entry): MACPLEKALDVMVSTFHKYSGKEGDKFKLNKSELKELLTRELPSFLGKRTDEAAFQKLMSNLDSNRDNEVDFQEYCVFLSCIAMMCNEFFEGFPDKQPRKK
Method in brief: as §1

Gal-1 [7] = biological target: T2, Gal-1; test: as above; assay type: binding; conditions: H14 library; 1:1 binding assumed; read-out: Surface mapping KD (apparent)
Method in brief: as §1

S100B [8] = biological target: T4, S100B; test: as above; assay type: binding; conditions: for Kd: H14 library, 1:1 binding assumed, read-out: Surface mapping KD (apparent); for Affinity class of probe (high, medium, low) in pull-down: H14 probes selected for validation
Method in brief: as §1

CaM [9] = biological target: T1, CaM; test: as above; assay type: binding, bovine; conditions: H14 library; 1:2 stoichiometry assumed; read-out: Surface mapping KD (apparent)
Method in brief: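 CaM buffer was 20 mM HEPES pH 7.4, 150 mM NaCl, 5 mM CaCl2. LSM sublibrary members ([…]) incubated 30 min, RT, with equimolar His-tagged protein on Co-NTA resin. HPLC-MS measured unbound probes; bound fraction relative to resin-only background gave dissociation constants.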

S100A4 [10] = biological target: T5, S100A4; test: Competition pull-down with native ligand NMIIA (1893–1923); assay type: binding; conditions: H14 library; competitor peptide 200 µM; read-out: Surface mapping KD (apparent), competition

Compound	Kd (CaM [1])	Kd (Gal-1 [2])	Kd (RecQ-WH [3])	Kd (S100B [4])	Kd (RecQ-WH [5])	Kd (S100A4 [6])	Kd (Gal-1 [7])	Kd (S100B [8])	Kd (CaM [9])	Kd (S100A4 [10])	Binding (S100A4 [6]; H14 probes)	Affinity class of probe (high, medium, low) in pull-down (S100A4 [6])	Binding (S100B [8]; H14 probes)	Affinity class of probe (high, medium, low) in pull-down (S100B [8])
NC(=O)[C@H]1CCCC[C@@H]1NC(=O)C[C@H](Cc1ccccc1)NC(=O)[C@H]1CCCC[C@@H]1NC(=O)[C@H]1CCCC[C@@H]1NC(=O)C[C@H](Cc1ccccc1)NC(=O)[C@H]1CCCC[C@@H]1N [H14 FF]	47 µM	108 µM	134 µM	180 µM	312 µM	12 µM	75 µM	16 µM	1.2 µM	–	–	–	–	–
CSCC[C@@H](CC(=O)N[C@H]1CCCC[C@@H]1C(N)=O)NC(=O)[C@H]1CCCC[C@@H]1NC(=O)[C@H]1CCCC[C@@H]1NC(=O)C[C@H](Cc1ccccc1)NC(=O)[C@H]1CCCC[C@@H]1N [H14 FM]	109 µM	250 µM	225 µM	352 µM	454 µM	22 µM	284 µM	19 µM	2 µM	–	–	–	–	–
CC[C@H](C)[C@@H](CC(=O)N[C@H]1CCCC[C@@H]1C(=O)N[C@H]1CCCC[C@@H]1C(=O)N[C@@H](CCSC)CC(=O)N[C@H]1CCCC[C@@H]1C(N)=O)NC(=O)[C@H]1CCCC[C@@H]1N [H14 IM]	–	–	340 µM	163 µM	–	3 µM	238 µM	47 µM	11 µM	217 µM	–	–	–	–
CC[C@H](C)[C@@H](CC(=O)N[C@H]1CCCC[C@@H]1C(=O)N[C@H]1CCCC[C@@H]1C(=O)N[C@H](CC(=O)N[C@H]1CCCC[C@@H]1C(N)=O)C(C)C)NC(=O)[C@H]1CCCC[C@@H]1N [H14 IV]	–	114 µM	366 µM	178 µM	–	3 µM	57 µM	43 µM	3 µM	187 µM	–	–	–	–
CC(C)C[C@@H](CC(=O)N[C@H]1CCCC[C@@H]1C(=O)N[C@H]1CCCC[C@@H]1C(=O)N[C@H](CC(=O)N[C@H]1CCCC[C@@H]1C(N)=O)C(C)C)NC(=O)[C@H]1CCCC[C@@H]1N [H14 LV]	–	128 µM	177 µM	213 µM	–	5 µM	68 µM	56 µM	3 µM	192 µM	–	–	–	–
NC(=O)CC[C@@H](CC(=O)N[C@H]1CCCC[C@@H]1C(=O)N[C@H]1CCCC[C@@H]1C(=O)N[C@H](CC(=O)N[C@H]1CCCC[C@@H]1C(N)=O)Cc1c[nH]c2ccccc12)NC(=O)[C@H]1CCCC[C@@H]1N [H14 QW]	168 µM	183 µM	143 µM	473 µM	341 µM	–	169 µM	79 µM	27 µM	–	–	–	–	–
N=C(N)NCCC[C@@H](CC(=O)N[C@H]1CCCC[C@@H]1C(=O)N[C@H]1CCCC[C@@H]1C(=O)N[C@H](CC(=O)N[C@H]1CCCC[C@@H]1C(N)=O)Cc1ccc(O)cc1)NC(=O)[C@H]1CCCC[C@@H]1N [H14 RY]	–	–	–	–	–	112 µM	–	40 µM	16 µM	324 µM	–	–	–	–
CC[C@H](C)[C@@H](CC(=O)N[C@H]1CCCC[C@@H]1C(N)=O)NC(=O)[C@H]1CCCC[C@@H]1NC(=O)[C@H]1CCCC[C@@H]1NC(=O)C[C@@H](NC(=O)[C@H]1CCCC[C@@H]1N)[C@@H](C)O [H14 TI]	–	266 µM	–	–	–	7 µM	175 µM	183 µM	69 µM	473 µM	binds	high	does not	low
CC(C)C[C@@H](CC(=O)N[C@H]1CCCC[C@@H]1C(N)=O)NC(=O)[C@H]1CCCC[C@@H]1NC(=O)[C@H]1CCCC[C@@H]1NC(=O)C[C@@H](NC(=O)[C@H]1CCCC[C@@H]1N)[C@@H](C)O [H14 TL]	–	266 µM	–	–	–	7 µM	175 µM	183 µM	69 µM	473 µM	–	–	–	–
CC[C@H](C)[C@@H](CC(=O)N[C@H]1CCCC[C@@H]1C(N)=O)NC(=O)[C@H]1CCCC[C@@H]1NC(=O)[C@H]1CCCC[C@@H]1NC(=O)C[C@@H](NC(=O)[C@H]1CCCC[C@@H]1N)C(C)C [H14 VI]	–	293 µM	366 µM	181 µM	–	3 µM	105 µM	43 µM	13 µM	246 µM	–	–	–	–
CC(C)[C@@H](CC(=O)N[C@H]1CCCC[C@@H]1C(N)=O)NC(=O)[C@H]1CCCC[C@@H]1NC(=O)[C@H]1CCCC[C@@H]1NC(=O)C[C@@H](NC(=O)[C@H]1CCCC[C@@H]1N)C(C)C [H14 VV]	–	–	–	198 µM	–	3 µM	244 µM	73 µM	7 µM	356 µM	–	–	–	–
CC(C)[C@@H](CC(=O)N[C@H]1CCCC[C@@H]1C(=O)N[C@H]1CCCC[C@@H]1C(=O)N[C@H](CC(=O)N[C@H]1CCCC[C@@H]1C(N)=O)Cc1c[nH]c2ccccc12)NC(=O)[C@H]1CCCC[C@@H]1N [H14 VW]	153 µM	211 µM	221 µM	60 µM	452 µM	11 µM	98 µM	16 µM	13 µM	–	–	–	–	–
NC(=O)[C@H]1CCCC[C@@H]1NC(=O)C[C@H](Cc1ccccc1)NC(=O)[C@H]1CCCC[C@@H]1NC(=O)[C@H]1CCCC[C@@H]1NC(=O)C[C@H](Cc1c[nH]c2ccccc12)NC(=O)[C@H]1CCCC[C@@H]1N [H14 WF]	29 µM	59 µM	62 µM	177 µM	106 µM	10 µM	38 µM	14 µM	4 µM	–	–	–	–	–
CSCC[C@@H](CC(=O)N[C@H]1CCCC[C@@H]1C(N)=O)NC(=O)[C@H]1CCCC[C@@H]1NC(=O)[C@H]1CCCC[C@@H]1NC(=O)C[C@H](Cc1c[nH]c2ccccc12)NC(=O)[C@H]1CCCC[C@@H]1N [H14 WM]	251 µM	305 µM	81 µM	125 µM	188 µM	43 µM	145 µM	45 µM	1.4 µM	–	–	–	–	–
NC(=O)[C@H]1CCCC[C@@H]1NC(=O)C[C@H](CO)NC(=O)[C@H]1CCCC[C@@H]1NC(=O)[C@H]1CCCC[C@@H]1NC(=O)C[C@H](Cc1c[nH]c2ccccc12)NC(=O)[C@H]1CCCC[C@@H]1N [H14 WS]	307 µM	–	209 µM	434 µM	352 µM	176 µM	467 µM	138 µM	9 µM	–	–	–	–	–
CC(C)[C@@H](CC(=O)N[C@H]1CCCC[C@@H]1C(N)=O)NC(=O)[C@H]1CCCC[C@@H]1NC(=O)[C@H]1CCCC[C@@H]1NC(=O)C[C@H](Cc1c[nH]c2ccccc12)NC(=O)[C@H]1CCCC[C@@H]1N [H14 WV]	85 µM	224 µM	102 µM	116 µM	268 µM	13 µM	143 µM	16 µM	2 µM	–	–	–	–	–
NC(=O)[C@H]1CCCC[C@@H]1NC(=O)C[C@H](Cc1ccccc1)NC(=O)[C@H]1CCCC[C@@H]1NC(=O)[C@H]1CCCC[C@@H]1NC(=O)C[C@H](Cc1ccc(O)cc1)NC(=O)[C@H]1CCCC[C@@H]1N [H14 YF]	119 µM	234 µM	84 µM	149 µM	400 µM	25 µM	162 µM	34 µM	2 µM	–	–	medium	–	medium
CC(C)[C@@H](CC(=O)N[C@H]1CCCC[C@@H]1C(N)=O)NC(=O)[C@H]1CCCC[C@@H]1NC(=O)[C@H]1CCCC[C@@H]1NC(=O)C[C@H](Cc1ccc(O)cc1)NC(=O)[C@H]1CCCC[C@@H]1N [H14 YV]	448 µM	223 µM	212 µM	372 µM	472 µM	23 µM	140 µM	112 µM	2 µM	–	–	–	–	–
